Measured values published in US10570152B2, “Antibacterial therapeutics and prophylactics” (VYOME BIOSCIENCES PVT. LTD., priority 2015, dated 2020).
≈ marks a conversion by molar mass, not a printed value.

Tests used:
[1] = test system: P. acnes CCARM 9010 induced paw inflammation; assay: Anti-inflammatory action in vivo, rat paw edema model; design: species or system Sprague Dawley rats; conditions: topical, 24 h post initiation of treatment (32 h post induction)
Description: Host inflammation is one of the crucial clinical feature of most of the indications associated with bacterial infections. The inventors used an exemplary compound of the invention (Compound 2) to test the anti-inflammatory effects in vivo using rat paw edema model. Inflammation was induced using one of the opportunistic pathogens Propionibacterium acnes prevalent in implant associated infections. Sprague Dawley rats were used for the study and infection was induced by P. acnes CCARM 9010. An inoculum of 1×10^9 CFU/ml of the heat killed bacteria was injected to the plantar side of the right hind paw (˜2×10^7 CFU/paw) except in sham control where saline was injected. Treatments were initiated 8 h post injection by applying the test formulation of Compound 2 (30 mg) twice daily to the plantar surface of the right hind paw and gently rubbing 50 times with the index finger. Comparators Acnedap (dapsone 5% gel) and adapalene gel (Adaferin®) were applied twice daily and once daily based on clinical prescription dosage. Paw sizes were measured in millimeters using Vernier calipers at the start of the infection, 8 h post infection, and 24 h post initiation of treatment (32 h post induction of inflammation). The change in paw size, due to inflammation, was evaluated as the difference between the paw size measured at each time point and the basal paw size measured immediately before edema induction.

S. aureus ATCC 43300 = assay: MIC by micro broth dilution; format: cell-based; conditions: Staphylococcus aureus, ATCC43300; S. aureus ATCC 43300; read-out: Minimum inhibitory concentration (MIC)
Method: (§1) MIC of DART molecules were determined by micro broth dilution as per CLSI guidelines. Bacterial strains were cultured in Brain Heart Infusion Agar (BHIA) at 37° C. for 24 h. For MIC determination, BHI broth (100 μl) was added to each of the wells of a 96 well plate. 100 μl of broth containing drug was added to the first well (1A to 1H) and thereafter serial (double) dilutions were carried out for up to 10 wells (column 1 to column 10 of the 96 well plate). Bacterial inoculum was prepared by adjusting the bacterial culture turbidity to 0.5 McFarland standard (approximately 1.5×10^8 cells/ml) and further diluted (100 times with sterile BHI broth). Diluted bacterial suspension (100 μl) was added to each well except sterility control wells (column 12 of 96 well plate). The plates were incubated at 37° C. for 24 h. The MIC of the test compound was measured after addition of Alamar blue dye.

E. faecium CCARM 5207 = assay: MIC by micro broth dilution; format: cell-based; conditions: Enterococcus faecium, CCARM5207, read-out: Minimum inhibitory concentration (MIC)
Method: as §1

P. aeruginosa CCARM 2204 = assay: MIC by micro broth dilution; format: cell-based; conditions: Pseudomonas aeruginosa, CCARM2204, read-out: Minimum inhibitory concentration (MIC)
Method: as §1

S. aureus MTCC 6908 = assay: MIC by micro broth dilution; format: cell-based; conditions: Staphylococcus aureus, MTCC6908, read-out: Minimum inhibitory concentration (MIC)
Method: as §1

E. coli BAA 196 = assay: MIC by micro broth dilution; format: cell-based; conditions: Escherichia coli, BAA196, read-out: Minimum inhibitory concentration (MIC)
Method: as §1

E. aerogenes M2-1 = assay: MIC by micro broth dilution; format: cell-based; conditions: Klebsiella aerogenes, M21, read-out: Minimum inhibitory concentration (MIC)
Method: as §1

E. faecium NCIM 5421 = assay: MIC by micro broth dilution; format: cell-based; conditions: Enterococcus faecium, NCIM5421, read-out: Minimum inhibitory concentration (MIC)
Method: as §1

S. aureus CCARM 3505 = assay: MIC by micro broth dilution; format: cell-based; conditions: Staphylococcus aureus, CCARM3505, read-out: Minimum inhibitory concentration (MIC)
Method: as §1

E. fecalis CCARM 5168 = assay: MIC by micro broth dilution; format: cell-based; conditions: read-out: Minimum inhibitory concentration (MIC)
Method: as §1

A. baumannii ATCC 1906 = assay: MIC by micro broth dilution; format: cell-based; conditions: Acinetobacter baumannii, ATCC1906, read-out: Minimum inhibitory concentration (MIC)
Method: as §1

E. aerogenes NCIM 5139 = assay: MIC by micro broth dilution; format: cell-based; conditions: Klebsiella aerogenes, NCIM5139, read-out: Minimum inhibitory concentration (MIC)
Method: as §1

[2] = test system: S. epidermidis ATCC 35984; assay: MIC by micro broth dilution; format: cell-based; conditions: Staphylococcus epidermidis, ATCC35984, read-out: Minimum inhibitory concentration (MIC)
Method: as §1

E. coli MTCC 1687 = assay: MIC by micro broth dilution; format: cell-based; conditions: Escherichia coli, MTCC1687, read-out: Minimum inhibitory concentration (MIC)
Method: as §1

A. baumannii CCARM 12001 = assay: MIC by micro broth dilution; format: cell-based; conditions: Acinetobacter baumannii, CCARM12001, read-out: Minimum inhibitory concentration (MIC)
Method: as §1

A. baumannii CCARM 12020 = assay: MIC by micro broth dilution; format: cell-based; conditions: Acinetobacter baumannii, CCARM12020, read-out: Minimum inhibitory concentration (MIC)
Method: as §1

S. epidermidis S12-1 = assay: MIC by micro broth dilution; format: cell-based; conditions: Staphylococcus epidermidis, S121, read-out: Minimum inhibitory concentration (MIC)
Method: as §1

P. aeruginosa ATCC 27853 = assay: MIC by micro broth dilution; format: cell-based; conditions: Pseudomonas aeruginosa, ATCC27853, read-out: Minimum inhibitory concentration (MIC)
Method: as §1

P. aeruginosa CCARM 2161 = assay: MIC by micro broth dilution; format: cell-based; conditions: Pseudomonas aeruginosa, CCARM2161, read-out: Minimum inhibitory concentration (MIC)
Method: as §1

K. pneumonia ATCC 13883 = assay: MIC by micro broth dilution; format: cell-based
Method: as §1

| MIC (S. aureus ATCC 43300) [µg/mL] | MIC (E. faecium CCARM 5207) [µg/mL] | MIC (S. aureus MTCC 6908) [µg/mL] | MIC (E. faecium NCIM 5421) [µg/mL] | MIC (S. aureus CCARM 3505) [µg/mL] | MIC (E. fecalis CCARM 5168) [µg/mL] | MIC [2] [µg/mL] | MIC (S. epidermidis S12-1) [µg/mL] | SMILES | also measured |
| --- | --- | --- | --- | --- | --- | --- | --- | --- | --- |
| – | – | – | – | – | – | – | – | COc1ccc(-c2ccc3cc(C(=O)O)ccc3c2)cc1C12CC3CC(CC(C3)C1)C2 [Adapalene, adapalene, reference compound] | Inhibition of inflammation (%) at 24 h post treatment [1]: 31.55% |
| 0.03 (≈ 0.0614 µM) | 8 (≈ 16.4 µM) | 0.125 (≈ 0.256 µM) | 0.625 (≈ 1.28 µM) | 1 (≈ 2.05 µM) | 4 (≈ 8.19 µM) | < 0.03 | 0.13 (≈ 0.266 µM) | CC1Sc2c(C(=O)O)c(=O)c3cc(F)c(N4CCN(C(=O)c5ccc([N+](=O)[O-])o5)CC4)cc3n21 (centres unmarked) [Compound 11, 6-Fluoro-1-methyl-7-(4-(5-nitrofuran-2-carbonyl)piperazin-1-yl)-4-oxo-1H,4H-[1,3]thiazeto[3,2-a]-quinoline-3-carboxylic acid] | MIC (P. aeruginosa CCARM 2204): > 16 µg/mL; MIC (E. coli BAA 196): 1 µg/mL (≈ 2.05 µM); MIC (E. aerogenes M2-1): 0.25 µg/mL (≈ 0.512 µM); MIC (A. baumannii ATCC 1906): 1 µg/mL (≈ 2.05 µM); MIC (E. aerogenes NCIM 5139): 0.125 µg/mL (≈ 0.256 µM); MIC (E. coli MTCC 1687): 0.25 µg/mL (≈ 0.512 µM); MIC (A. baumannii CCARM 12001): > 16 µg/mL; MIC (A. baumannii CCARM 12020): > 16 µg/mL; MIC (P. aeruginosa ATCC 27853): 1 µg/mL (≈ 2.05 µM); MIC (P. aeruginosa CCARM 2161): > 16 µg/mL; activity in words (K. pneumonia ATCC 13883; Klebsiella pneumonia (susceptible)): active; MIC (K. pneumonia ATCC 13883; Klebsiella pneumoniae, ATCC13883, K. pneumonia ATCC 13883, read-out: Minimum inhibitory concentration (MIC)): 0.5 µg/mL (≈ 1.02 µM) |
| 32 (≈ 59.5 µM) | > 16 | > 64 | > 16 | > 16 | > 16 | 16 (≈ 29.8 µM) | > 16 | CC1Sc2c(C(=O)O)c(=O)c3cc(F)c(N4CCN(CC(=O)Nc5ccc6nc(N)[nH]c6c5)CC4)cc3n21 (centres unmarked) [Compound 19, 7-(4-(2-((2-Amino-1H-benzo[d]imidazol-6-yl)-amino)-2-oxoethyl)piperazin-1-yl)-6-fluoro-1-methyl-4-oxo-1H,4H-[1,3]thiazeto[3,2-a]quinoline-3-carboxylic acid] | – |
